From US12466829B2, “Spirocyclic piperidine melanocortin subtype-2 receptor (MC2R) antagonists and uses thereof” (Crinetics Pharmaceuticals, Inc., priority 2019, dated 2025)

Target: T1, hMC2 receptor (Homo sapiens, UniProt Q01718)
T1 construct: host or cells: CRE-bla-CHO-K1 cells
Assay: hMC2 membrane binding assay ([125I]ACTH (1-39) Tyr23, SPA)
Details: crude membranes of CRE-bla-CHO-K1 cells expressing hMC2 receptor and hMRAP; 0.2 nM [125I]ACTH (1-39) Tyr23; 1.5 hours at room temperature; read-out: MC2R binding potency
Method: Crude membrane fractions are prepared from CRE-bla-CHO-K1 cells stably expressing hMC2 receptor and hMRAP accessory protein (Thermo Fisher). The cells are grown to 85-100% confluence on standard tissue culture dishes in GlutaMax DMEM growth media (Gibco) with following additives: 10% dialyzed FBS (Gemini), 0.1 mM NEAA (Gibco), 25 mM HEPES (Gibco), 5 μg/mL blasticidin (Goldbio), 100 μg/mL zeocin (Invitrogen), 600 μg/mL hygromycin (Goldbio). To prepare membranes, cells are scraped and collected in 1× Dulbecco's phosphate buffered saline (Corning) and then pelleted at 1000 RPM's. The cell pellet is reconstituted in membrane preparation buffer (20 mM HEPES, 6 mM MgCl2 and 1 mM EGTA, protease inhibitor tablets (Pierce) adjusted to pH 7.4), homogenized using a dounce homogenizer, and the resulting membrane fraction is pelleted by centrifugation at 12,000 RPM's. The membrane pellet is resuspended in membrane preparation buffer, snap freezed and stored at −80° C. for later use.
The hMC2 membrane binding assay utilizes the following components: radiolabel [^125I]ACTH (1-39) Tyr23 (PerkinElmer), wheatgerm agglutinin coated PVT SPA beads (PerkinElmer), crude hMC2R membranes, and compounds. Briefly hMC2R membranes are incubated with SPA beads in binding assay buffer (50 mM HEPES, 5 mM MgCl2, 1 mM CaCl2), 0.2% BSA, protease inhibitor tablets (Pierce) adjusted to pH7.4) prior to assay initiation. […] Assay plates are read using a Top Count NXT and Ki values for compounds are determined using a GraphPad Prism 6 non-linear regression analysis.

T1 sequence (Q01718 whole entry): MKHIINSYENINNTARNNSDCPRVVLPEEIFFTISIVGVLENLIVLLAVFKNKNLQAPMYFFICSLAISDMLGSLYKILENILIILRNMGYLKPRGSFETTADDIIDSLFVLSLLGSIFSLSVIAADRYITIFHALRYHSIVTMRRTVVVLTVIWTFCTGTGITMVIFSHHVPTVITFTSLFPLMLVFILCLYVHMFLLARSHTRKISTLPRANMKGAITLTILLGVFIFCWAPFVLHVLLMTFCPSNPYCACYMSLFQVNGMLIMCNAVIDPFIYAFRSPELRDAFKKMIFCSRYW
T1 sequence (Q8TCY5 whole entry partner): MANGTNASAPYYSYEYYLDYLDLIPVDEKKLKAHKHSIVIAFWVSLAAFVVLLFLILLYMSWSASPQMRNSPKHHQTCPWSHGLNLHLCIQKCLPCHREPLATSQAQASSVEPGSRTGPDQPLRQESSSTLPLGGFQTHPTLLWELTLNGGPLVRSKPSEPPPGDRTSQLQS

| Ki [nM] | SMILES |
| --- | --- |
| 10 to 100 | CCOc1ncccc1-c1ccc2c(n1)N([C@H]1CCNC1)CC21CCN(c2ccc(C(F)(F)F)cc2C#N)CC1 [1-53, 2-[6′-(2-ethoxypyridin-3-yl)-1′-[(3S)-pyrrolidin-3-yl]-1′,2′-dihydrospiro[piperidine-4,3′-pyrrolo[2,3-b]pyridin]-1-yl]-5-(trifluoromethyl)benzonitrile] |
| < 10 | CCOc1ncccc1-c1ccc2c(n1)N(CCCN)CC21CCN(c2ccc(C(F)(F)F)cc2C#N)CC1 [1-54, 2-[1′-(3-aminopropyl)-6′-(2-ethoxypyridin-3-yl)-1′,2′-dihydrospiro[piperidine-4,3′-pyrrolo[2,3-b]pyridin]-1-yl]-5-(trifluoromethyl)benzonitrile] |
| < 10 | CCOc1ncccc1-c1ccc2c(n1)N(C(=O)NCCN)CC21CCN(c2ccc(C(F)(F)F)cc2C#N)CC1 [1-55, N-(2-aminoethyl)-1-[2-cyano-4-(trifluoromethyl)phenyl]-6′-(2-ethoxypyridin-3-yl)-1′,2′-dihydrospiro[piperidine-4,3′-pyrrolo[2,3-b]pyridine]-1′-carboxamide] |
| 10 to 100 | CCOc1ncccc1-c1ccc2c(n1)N(C(=O)NC[C@H](C)N)CC21CCN(c2ccc(C(F)(F)F)cc2C#N)CC1 [1-56, N-[(2S)-2-aminopropyl]-1-[2-cyano-4-(trifluoromethyl)phenyl]-6′-(2-ethoxypyridin-3-yl)-1′,2′-dihydrospiro[piperidine-4,3′-pyrrolo[2,3-b]pyridine]-1′-carboxamide] |
| 10 to 100 | CCOc1ncccc1-c1ccc2c(n1)N(C(=O)N[C@@H]1CCNC1)CC21CCN(c2ccc(C(F)(F)F)cc2C#N)CC1 [1-57, 1-[2-cyano-4-(trifluoromethyl)phenyl]-6′-(2-ethoxypyridin-3-yl)-N-[(3R)-pyrrolidin-3-yl]-1′,2′-dihydrospiro[piperidine-4,3′-pyrrolo[2,3-b]pyridine]-1′-carboxamide] |
| < 10 | CCOc1ncccc1-c1ccc2c(n1)N(C(=O)CCN(C)C)CC21CCN(c2ccc(C(F)(F)F)cc2C#N)CC1 [1-58, 2-{1′-[3-(dimethylamino)propanoyl]-6′-(2-ethoxypyridin-3-yl)-1′,2′-dihydrospiro[piperidine-4,3′-pyrrolo[2,3-b]pyridin]-1-yl}-5-(trifluoromethyl)benzonitrile] |
| < 10 | CCOc1ncccc1-c1ccc2c(n1)N(C(=O)NCCNC)CC21CCN(c2ccc(C(F)(F)F)cc2C#N)CC1 [1-59, 1-[2-cyano-4-(trifluoromethyl)phenyl]-6′-(2-ethoxypyridin-3-yl)-N-[2-(methylamino)ethyl]-1′,2′-dihydrospiro[piperidine-4,3′-pyrrolo[2,3-b]pyridine]-1′-carboxamide] |
| < 10 | CCOc1ncccc1-c1ccc2c(n1)N(CCN)C(=O)C21CCN(c2ccc(C(F)(F)F)cc2C#N)CC1 [1-60, 2-[1′-(2-aminoethyl)-6′-(2-ethoxypyridin-3-yl)-2′-oxo-1′,2′-dihydrospiro[piperidine-4,3′-pyrrolo[2,3-b]pyridin]-1-yl]-5-(trifluoromethyl)benzonitrile] |
| < 10 | CCOc1ncccc1-c1ccc2c(n1)N(C[C@@H](C)N)C(=O)C21CCN(c2ccc(C(F)(F)F)cc2C#N)CC1 [1-61, 2-{1′-[(2R)-2-aminopropyl]-6′-(2-ethoxypyridin-3-yl)-2′-oxo-1′,2′-dihydrospiro[piperidine-4,3′-pyrrolo[2,3-b]pyridin]-1-yl}-5-(trifluoromethyl)benzonitrile] |
| < 10 | CCOc1ncccc1-c1ccc2c(n1)N(CCN(C)C)C(=O)C21CCN(c2ccc(C(F)(F)F)cc2C#N)CC1 [1-62, 2-{1′-[2-(dimethylamino)ethyl]-6′-(2-ethoxypyridin-3-yl)-2′-oxo-1′,2′-dihydrospiro[piperidine-4,3′-pyrrolo[2,3-b]pyridin]-1-yl}-5-(trifluoromethyl)benzonitrile] |
| < 10 | CCOc1ncccc1-c1ccc2c(n1)N(CCNC)C(=O)C21CCN(c2ccc(C(F)(F)F)cc2C#N)CC1 [1-63, 2-[6′-(2-ethoxypyridin-3-yl)-1′-[2-(methylamino)ethyl]-2′-oxo-1′,2′-dihydrospiro[piperidine-4,3′-pyrrolo[2,3-b]pyridin]-1-yl]-5-(trifluoromethyl)benzonitrile] |
| < 10 | CCOc1ncccc1-c1ccc2c(c1)N(CCN)C(=O)NC21CCN(c2ccc(C(F)(F)F)cc2C#N)CC1 [1-64, 2-[1′-(2-aminoethyl)-7′-(2-ethoxypyridin-3-yl)-2′-oxo-2′,3′-dihydro-1′H-spiro[piperidine-4,4′-quinazolin]-1-yl]-5-(trifluoromethyl)benzonitrile] |
| < 10 | CCOc1ncccc1-c1ccc2c(c1)N(CCNC)C(=O)NC21CCN(c2ccc(C(F)(F)F)cc2C#N)CC1 [1-65, 2-[7′-(2-ethoxypyridin-3-yl)-1′-[2-(methylamino)ethyl]-2′-oxo-2′,3′-dihydro-1′H-spiro[piperidine-4,4′-quinazolin]-1-yl]-5-(trifluoromethyl)benzonitrile] |
| 10 to 100 | CCOc1ncccc1-c1ccc2c(c1)N(CCN)C(=O)CC21CCN(c2ccc(C(F)(F)F)cc2C#N)CC1 [1-66, 2-[1′-(2-aminoethyl)-7′-(2-ethoxypyridin-3-yl)-2′-oxo-2′,3′-dihydro-1′H-spiro[piperidine-4,4′-quinolin]-1-yl]-5-(trifluoromethyl)benzonitrile] |
| 10 to 100 | CCOc1ncccc1-c1ccc2c(c1)N(C[C@H](C)N)C(=O)CC21CCN(c2ccc(C(F)(F)F)cc2C#N)CC1 [1-68, 2-{1′-[(2S)-2-aminopropyl]-7′-(2-ethoxypyridin-3-yl)-2′-oxo-2′,3′-dihydro-1′H-spiro[piperidine-4,4′-quinolin]-1-yl}-5-(trifluoromethyl)benzonitrile] |
| 10 to 100 | CCOc1ncccc1-c1ccc2c(c1)N(CCNC)C(=O)CC21CCN(c2ccc(C(F)(F)F)cc2C#N)CC1 [1-69, 2-[7′-(2-ethoxypyridin-3-yl)-1′-[2-(methylamino)ethyl]-2′-oxo-2′,3′-dihydro-1′H-spiro[piperidine-4,4′-quinolin]-1-yl]-5-(trifluoromethyl)benzonitrile] |
| 10 to 100 | CCOc1ncccc1-c1ccc2c(c1)N(C[C@@H](C)N)C(=O)CC21CCN(c2ccc(C(F)(F)F)cc2C#N)CC1 [1-70, 2-{1′-[(2R)-2-aminopropyl]-7′-(2-ethoxypyridin-3-yl)-2′-oxo-2′,3′-dihydro-1′H-spiro[piperidine-4,4′-quinolin]-1-yl}-5-(trifluoromethyl)benzonitrile] |
